This experiment deals with T1, human PAD4 (Homo sapiens, UniProt Q9UM07).
T1 construct: human PAD4 (NM_012387), A2P663, was PCR amplified; His-SUMO (N, cleaved yes); made in house; host or cells: E. coli BL21(DE3)
T1 sequence (Q9UM07 2-663): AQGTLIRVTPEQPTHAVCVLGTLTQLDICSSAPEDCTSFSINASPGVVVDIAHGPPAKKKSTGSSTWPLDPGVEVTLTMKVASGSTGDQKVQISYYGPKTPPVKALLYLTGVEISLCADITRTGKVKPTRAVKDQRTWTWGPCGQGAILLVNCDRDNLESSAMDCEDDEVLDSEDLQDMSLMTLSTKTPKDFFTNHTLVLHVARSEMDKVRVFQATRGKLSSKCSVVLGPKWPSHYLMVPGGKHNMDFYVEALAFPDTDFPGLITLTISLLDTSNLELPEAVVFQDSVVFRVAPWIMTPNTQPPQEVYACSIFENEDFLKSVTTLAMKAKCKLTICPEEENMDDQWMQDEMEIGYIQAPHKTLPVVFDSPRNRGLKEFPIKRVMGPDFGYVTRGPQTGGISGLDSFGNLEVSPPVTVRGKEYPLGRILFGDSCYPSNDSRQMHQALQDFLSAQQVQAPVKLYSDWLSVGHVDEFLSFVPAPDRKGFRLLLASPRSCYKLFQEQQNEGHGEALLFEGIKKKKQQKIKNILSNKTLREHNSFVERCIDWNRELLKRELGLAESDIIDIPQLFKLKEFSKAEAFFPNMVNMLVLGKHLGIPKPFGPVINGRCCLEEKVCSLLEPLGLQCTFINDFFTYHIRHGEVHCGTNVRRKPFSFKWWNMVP
Kind of experiment: In vitro PAD4 BAEE biochemical assay. As to conditions: human PAD4, BAEE substrate; 5 nM PAD4, 2 mM calcium chloride, 3 mM BAEE; geometric mean of multiple experiments. A digest of the protocol: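 Ammonia release from BAEE deimination monitored by o-phthalaldehyde amine coupling (1 h, 25 °C) after EDTA stop. Final conditions: 5 nM tag-free recombinant human PAD4 (E. coli), 2 mM CaCl2, 3 mM BAEE, pH 7.6 MOPS with DTT; 30 min compound preincubation, then 2 h reaction at 25 °C.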
`COc1cc(C(=O)N2[C@H]3CC[C@@H]2[C@H](N)C3)cc2nc(-c3cc4ccc([C@@H](C)NC(=O)c5cnn(C(C)(C)C)c5)nc4n3CC3CC3)c(C)n12` [Example 82, ~{N}-[(1~{R})-1-[2-[7-[(1~{R},2~{R},4~{S})-2-amino-7-azabicyclo[2.2.1]heptane-7-carbonyl]-5-methoxy-3-methylimidazo [1,2-a]pyridin-2-yl]-1-(cyclopropylmethyl)pyrrolo [2,3-b]pyridin-6-yl]ethyl]-1-~{tert}-butylpyrazole-4-carboxamide]: the IC50 was 51.2 nM.
Regarding `CCc1ccc2cc(-c3nc4cc(C(=O)N5CC[C@@H](OC)[C@@H](N)C5)cc(OC)n4c3C)n(CC3CC3)c2n1` [Example 579, [(3~{S},4~{R})-3-amino-4-methoxypiperidin-1-yl]-[2-[1-(cyclopropylmethyl)-6-ethylpyrrolo[2,3-b]pyridin-2-yl]-5-methoxy-3-methylimidazo[1,2-a]pyridin-7-yl]methanone], the IC50 stood at 412 nM.
The value for `CNC(=O)[C@@H](C)Oc1ccc2cc(-c3nc4cc(C(=O)N5CCC[C@@H](N)C5)cc(OC)n4c3C)n(CC3CC3)c2n1` [Example 618] was 401 nM; that for `COc1cc(C(=O)N2[C@H]3CC[C@@H]2[C@H](N)C3)cc2nc(-c3cc4ccc(OCC(=O)N(C)C)nc4n3CC3CC3)c(C)n12` [Example 624, 2-[2-[7-[(1~{R},2~{R}, 4~{S})-2-amino-7-azabicyclo[2.2.1]heptane-7-carbonyl]-5-methoxy-3-methylimidazo[1,2-a]pyridin-2-yl]-1-(cyclopropylmethyl)pyrrolo [2,3-b]pyridin-6-yl] oxy-~{N},~{N}-dimethylacetamide] was 114 nM.
For `COc1cc(C(=O)N2CCC[C@@H](N)C2)cc2nc(-c3cc4ccc(C(C)n5cc(N)cn5)nc4n3CC3CC3)c(C)n12` (stereo partly drawn) [Example 547, [(3~{R})-3-aminopiperidin-1-yl]-[2-[6-[1-(4-aminopyrazol-1-yl)ethyl]-1-(cyclopropylmethyl)pyrrolo[2,3-b]pyridin-2-yl]-5-methoxy-3-methylimidazo[1,2-a]pyridin-7-yl]methanone], the IC50 came out at 715 nM.
The value for `COc1cc(C(=O)N2[C@H]3CC[C@@H]2[C@H](N)C3)cc2nc(-c3cc4ccc([C@@H](C)NC(=O)C5CC6(CCC6)C5)nc4n3CC3CC3)c(C)n12` [Example 43, ~{N}-[(1~{R})-1-[2-[7-[(1~{R},2~{R},4~{S})-2-amino-7-azabicyclo[2.2.1]heptane-7-carbonyl]-5-methoxy-3-methylimidazo [1,2-a]pyridin-2-yl]-1-(cyclopropylmethyl)pyrrolo[2,3-b]pyridin-6-yl]ethyl]spiro[3.3]heptane-2-carboxamide] was 49.6 nM; that for `COc1cc(C(=O)N2CCC[C@@H](N)C2)cc2nc(-c3cc4ccc(C(C)(F)F)nc4n3CC3CC3)c(C)n12` [Example 596, [(3~{R})-3-aminopiperidin-1-yl]-[2-[1-(cyclopropylmethyl)-6-(1,1-difluoroethyl)pyrrolo [2,3-b]pyridin-2-yl]-5-methoxy-3-methylimidazo [1,2-a]pyridin-7-yl] methanone] was 997 nM.
Then `CCC1C(N)C2CCC1N2C(=O)c1cc(OC)n2c(C)c(-c3cc4ccc(N(C(F)F)S(C)(=O)=O)nc4n3CC3CC3)nc2c1` (single isomer, unassigned) [Example 347], with 10100 nM; and `COc1cc(C(=O)N2[C@H]3CC[C@@H]2[C@H](N)C3)cc2nc(-c3cc4ccc(N5CCCC(C(C)C)S5(=O)=O)nc4n3CC3CC3)c(C)n12` (stereo partly drawn) [Example 452, [(1~{R},2~{R},4~{S})-2-amino-7-azabicyclo [2.2.1]heptan-7-yl]-[2-[1-(cyclopropylmethyl)-6-(1,1-dioxo-6-propan-2-ylthiazinan-2-yl)pyrrolo [2,3-b]pyridin-2-yl]-5-methoxy-3-methylimidazo [1,2-a]pyridin-7-yl]methanone], with 246 nM; and `COc1cc(C(=O)N2[C@H]3CC[C@@H]2[C@H](N)C3)cc2nc(-c3cc4ccc(C5CCN(C(C)=O)CC5)nc4n3CC3CC3)c(C)n12` [Example 527, 1-[4-[2-[7-[(1~{R},2~{R}, 4~{S})-2-amino-7-azabicyclo[2.2.1]heptane-7-carbonyl]-5-methoxy-3-methylimidazo[1,2-a]pyridin-2-yl]-1-(cyclopropylmethyl)pyrrolo [2,3-b]pyridin-6-yl]piperidin-1-yl] ethenone], with 220 nM.
Then `COc1cc(C(=O)N2[C@H]3CC[C@@H]2[C@H](N)C3)cc2nc(-c3cc4ccc(N5[C@@H](C)COCS5(=O)=O)nc4n3CC3CC3)c(C)n12` [Example 439, [(1~{R},2~{R},4~{S})-2-amino-7-azabicyclo [2.2.1]heptan-7-yl]-[2-[1-(cyclopropylmethyl)-6-[(5~{S})-5-methyl-3,3-dioxo-1,3,4-oxathiazinan-4-yl]pyrrolo [2,3-b]pyridin-2-yl]-5-methoxy-3-methylimidazo [1,2-a]pyridin-7-yl] methanone], with 24.3 nM; and `COc1cc(C(=O)N2[C@@H]3CC[C@@H](N)[C@H]2CC3)cc2nc(-c3cc4ccc([C@@H](C)NC(=O)C(C)(C)C)nc4n3CC3CC3)c(C)n12` [Example 170, ~{N}-[(1~{R})-1-[2-[7-[(1~{R},2~{R},5~{R})-2-amino-8-azabicyclo[3.2.1]octane-8-carbonyl]-5-methoxy-3-methylimidazo [1,2-a]pyridin-2-yl]-1-(cyclopropylmethyl)pyrrolo [2,3-b]pyridin-6-yl]ethyl]-2,2-dimethylpropanamide], with 161 nM.
Consider `CCOC(=O)CCC(=O)N[C@H](C)c1ccc2cc(-c3nc4cc(C(=O)N5[C@H]6CC[C@@H]5[C@H](N)C6)cc(OC)n4c3C)n(CC3CC3)c2n1` [Example 152, ethyl 4-[[(1~{R})-1-[2-[7-[(1~{R},2~{R},4~{S})-2-amino-7-azabicyclo[2.2.1]heptane-7-carbonyl]-5-methoxy-3-methylimidazo [1,2-a]pyridin-2-yl]-1-(cyclopropylmethyl)pyrrolo [2,3-b]pyridin-6-yl]ethyl]amino]-4-oxobutanoate], for which the IC50 is 63.5 nM.
Turning to `COc1cc(C(=O)N2[C@H]3CC[C@@H]2[C@H](N)C3)cc2nc(-c3cc4ccc([C@@H](C)NC(=O)[C@H]5C[C@@](C)(O)C5)nc4n3CC3CC3)c(C)n12` [Example 54, ~{N}-[(1~{R})-1-[2-[7-[(1~{R},2~{R}, 4~{S})-2-amino-7-azabicyclo[2.2.1]heptane-7-carbonyl]-5-methoxy-3-methylimidazo[1,2-a]pyridin-2-yl]-1-(cyclopropylmethyl)pyrrolo[2,3-b]pyridin-6-yl]ethyl]-3-hydroxy-3-methylcyclobutane-1-carboxamide], the half-inhibitory concentration (IC50) came out at 28.7 nM.
The value for `COc1cc(C(=O)N2[C@H]3CC[C@@H]2[C@H](N)C3)cc2nc(-c3cc4ccc([C@@H](C)NC(=O)N5CC[C@H](CCO)C5)nc4n3CC3CC3)c(C)n12` [Example 215, (3~{R})-~{N}-[(1~{R})-1-[2-[7-[(1~{R},2~{R}, 4~{S})-2-amino-7-azabicyclo[2.2.1]heptane-7-carbonyl]-5-methoxy-3-methylimidazo [1,2-a]pyridin-2-yl]-1-(cyclopropylmethyl)pyrrolo [2,3-b]pyridin-6-yl]ethyl]-3-(2-hydroxyethyl)pyrrolidine-1-carboxamide] was 44.2 nM.

For the origin of these results see patent US12240862B2, “Inhibitors of peptidylarginine deiminases” (Gilead Sciences, Inc., priority 2020, dated 2025).
